Where two headings read alike, the source gives them in different places.
Assays:
[1] = Chemical stability under acidic and basic conditions by 31P-NMR
Excerpt: To evaluate the chemical stability of uridine-5′-Pα,α-dithiophosphate analogues, we measured by 31P-NMR the time-dependent percentage of the analogues remaining under basic and acidic conditions, and due to air-oxidation.

[2] = molecular target: T1, Human CD39 (NTPDase1) (Homo sapiens, UniProt P49961); test: Inhibition of human CD39 (NTPDase1), 100 μM ADP as substrate; type: biochemical; details: 100 μM ADP as a substrate; for Ki: read-out: Ki ± SD (μM), Human CD39 (NTPDase1)
T1 sequence (P49961 1-510): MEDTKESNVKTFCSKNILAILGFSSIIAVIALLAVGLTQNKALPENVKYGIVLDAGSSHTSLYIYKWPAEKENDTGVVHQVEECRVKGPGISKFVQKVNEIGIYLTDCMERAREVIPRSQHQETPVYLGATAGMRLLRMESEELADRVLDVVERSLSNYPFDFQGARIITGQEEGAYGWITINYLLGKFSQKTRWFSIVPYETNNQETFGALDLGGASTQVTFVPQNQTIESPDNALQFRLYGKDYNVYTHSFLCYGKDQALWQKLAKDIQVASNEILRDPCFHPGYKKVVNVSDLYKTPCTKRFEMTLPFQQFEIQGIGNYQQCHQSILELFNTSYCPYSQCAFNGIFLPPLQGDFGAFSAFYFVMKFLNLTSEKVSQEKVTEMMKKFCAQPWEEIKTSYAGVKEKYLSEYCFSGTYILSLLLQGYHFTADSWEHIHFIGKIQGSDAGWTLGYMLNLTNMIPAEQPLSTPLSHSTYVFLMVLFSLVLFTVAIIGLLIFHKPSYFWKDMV

[3] = molecular target: T2, NPP1 (Homo sapiens, UniProt P22413); test: Inhibition of human NPP1, 100 μM p-Nph-5′-TMP as substrate (Tables 5, 6); details: for % inhibition ± SD at 10 μM, Human NPP1: inactive = no inhibition at 10 μM
T2 sequence (P22413 1-925): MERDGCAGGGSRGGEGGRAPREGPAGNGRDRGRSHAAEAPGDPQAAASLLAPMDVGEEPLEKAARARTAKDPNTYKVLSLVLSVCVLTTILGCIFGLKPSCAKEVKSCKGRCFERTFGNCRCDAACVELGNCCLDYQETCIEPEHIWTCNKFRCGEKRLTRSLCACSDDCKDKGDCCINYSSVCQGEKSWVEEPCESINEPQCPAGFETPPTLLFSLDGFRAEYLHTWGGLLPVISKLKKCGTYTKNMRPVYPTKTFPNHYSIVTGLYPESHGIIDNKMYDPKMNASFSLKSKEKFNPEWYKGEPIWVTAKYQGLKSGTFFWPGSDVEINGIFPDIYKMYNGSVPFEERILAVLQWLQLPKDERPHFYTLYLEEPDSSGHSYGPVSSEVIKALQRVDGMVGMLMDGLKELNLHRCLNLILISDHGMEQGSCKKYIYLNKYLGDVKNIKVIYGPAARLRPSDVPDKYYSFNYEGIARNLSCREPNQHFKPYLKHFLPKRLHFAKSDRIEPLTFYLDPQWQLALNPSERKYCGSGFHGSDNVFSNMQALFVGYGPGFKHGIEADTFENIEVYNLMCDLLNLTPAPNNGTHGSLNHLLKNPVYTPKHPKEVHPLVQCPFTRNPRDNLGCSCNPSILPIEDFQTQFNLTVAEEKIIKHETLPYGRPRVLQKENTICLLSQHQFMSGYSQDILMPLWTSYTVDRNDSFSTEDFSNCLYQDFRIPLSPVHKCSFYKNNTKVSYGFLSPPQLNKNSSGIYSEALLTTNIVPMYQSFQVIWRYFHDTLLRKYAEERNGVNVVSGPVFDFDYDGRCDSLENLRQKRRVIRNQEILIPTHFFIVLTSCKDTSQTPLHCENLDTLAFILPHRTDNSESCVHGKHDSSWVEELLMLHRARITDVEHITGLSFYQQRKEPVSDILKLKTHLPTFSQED

[4] = molecular target: T3, human NPP3 (Homo sapiens, UniProt O14638); test: Inhibition of human NPP3, 100 μM p-Nph-5′-TMP as substrate (Tables 5, 7); type: biochemical; details: 10 μM; 100 μM p-Nph-5′-TMP as a substrate; inactive = no inhibition at 10 μM
T3 sequence (O14638 1-875): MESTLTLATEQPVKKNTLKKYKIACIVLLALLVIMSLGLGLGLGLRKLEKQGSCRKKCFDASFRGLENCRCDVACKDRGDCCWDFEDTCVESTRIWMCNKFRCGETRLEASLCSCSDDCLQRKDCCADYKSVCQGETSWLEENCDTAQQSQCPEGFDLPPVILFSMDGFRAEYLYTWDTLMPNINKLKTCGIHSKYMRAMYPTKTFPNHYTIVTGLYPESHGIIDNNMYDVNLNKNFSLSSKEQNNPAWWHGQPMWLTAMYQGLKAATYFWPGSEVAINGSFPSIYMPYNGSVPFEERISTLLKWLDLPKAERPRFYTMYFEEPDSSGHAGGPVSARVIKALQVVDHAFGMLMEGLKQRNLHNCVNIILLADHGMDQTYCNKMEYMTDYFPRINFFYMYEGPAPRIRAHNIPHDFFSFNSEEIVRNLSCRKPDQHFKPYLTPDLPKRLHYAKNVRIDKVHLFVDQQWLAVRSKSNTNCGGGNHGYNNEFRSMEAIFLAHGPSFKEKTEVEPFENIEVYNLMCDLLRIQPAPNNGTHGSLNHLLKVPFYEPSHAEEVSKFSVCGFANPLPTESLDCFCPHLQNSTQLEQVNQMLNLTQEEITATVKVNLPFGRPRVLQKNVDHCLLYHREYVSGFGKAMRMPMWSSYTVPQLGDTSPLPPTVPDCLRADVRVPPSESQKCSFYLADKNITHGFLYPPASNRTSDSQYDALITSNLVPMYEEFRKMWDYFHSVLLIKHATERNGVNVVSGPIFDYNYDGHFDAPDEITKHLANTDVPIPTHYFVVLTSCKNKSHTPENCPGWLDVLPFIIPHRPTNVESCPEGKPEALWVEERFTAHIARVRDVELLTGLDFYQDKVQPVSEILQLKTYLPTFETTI

[5] = molecular target: T4, Human CD73 (Homo sapiens, UniProt P21589); test: Inhibition of human CD73, 5 μM [2,8-3H]AMP as substrate; type: biochemical; details: 5 μM [2,8-3H]AMP as a substrate; for Ki: read-out: Ki ± SD (μM), Human CD73; for % inhibition ± SD at 10 μM, Human CD73: inactive = no inhibition at 10 μM
T4 sequence (P21589 27-549): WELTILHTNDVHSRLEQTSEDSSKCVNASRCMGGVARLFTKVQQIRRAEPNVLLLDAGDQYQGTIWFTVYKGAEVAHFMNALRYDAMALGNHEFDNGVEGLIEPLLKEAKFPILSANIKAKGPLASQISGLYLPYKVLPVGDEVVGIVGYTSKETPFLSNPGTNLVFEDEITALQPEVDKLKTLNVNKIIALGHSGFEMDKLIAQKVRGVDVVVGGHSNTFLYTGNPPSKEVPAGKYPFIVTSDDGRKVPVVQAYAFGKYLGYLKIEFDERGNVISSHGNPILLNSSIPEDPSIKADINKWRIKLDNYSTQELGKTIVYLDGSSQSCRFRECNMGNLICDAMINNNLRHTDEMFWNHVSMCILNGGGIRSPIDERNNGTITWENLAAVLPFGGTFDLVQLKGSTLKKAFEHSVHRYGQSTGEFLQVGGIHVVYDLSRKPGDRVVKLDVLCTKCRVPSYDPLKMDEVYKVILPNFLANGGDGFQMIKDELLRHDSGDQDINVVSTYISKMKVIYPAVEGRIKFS

[6] = molecular target: T2, NPP1; test: Inhibition of human NPP1, 100 μM ATP as substrate (FIG. 9, Table 6); type: biochemical; details: 100 μM ATP as a substrate; read-out: Ki, human NPP1
Procedure: Each experiment was performed in triplicates;

[7] = cited from earlier work
[8] = 10 μM, inactive = no inhibition at 10 μM
[9] = 100 μM p-Nph-5′-TMP as a substrate
[10] = read-out: Ki ± SD (μM), Human NPP1, 100 μM p-Nph-5′-TMP as a substrate

SMILES | % inhibition ± SD at 10 μM, Human CD39 (NTPDase1) [2, 8] | % inhibition ± SD at 10 μM, Human NPP1 [3, 9] | % inhibition ± SD at 10 μM, Human NPP3 [4] | Ki [5] [µM] | Ki [2] [µM] | % inhibition ± SD at 10 μM, Human CD73 [5] | Ki [3, 10] [µM] | other results
O=c1ccn([C@@H]2O[C@H](COP(=O)(O)OP(=O)(O)O)[C@@H](O)[C@H]2O)c(=O)[nH]1 [UDP] |  |  |  |  |  |  |  | decomposition ([1]; pD 2.1, after 28 days): 7%
Nc1ncnc2c1ncn2[C@@H]1O[C@H](COP(=O)(O)CS(=O)(=O)O)[C@@H](O)[C@H]1O [Compound 20] | inactived | inactived | inactived | 49.5 ± 0.7 |  |  |  | 
Nc1ncnc2c1ncn2COCCO[PH](=O)O [Compound 25] |  |  | inactived |  | > 10 | inactived |  | inhibition at 10 µM ([2]; 10 μM, inactive = no inhibition at 10 μM, read-out: % inhibition ± SD at 10 μM, Human CD39 (NTPDase1)): 33%; Ki [3]: > 10 µM; inhibition at 10 µM ([3]; read-out: % inhibition ± SD at 10 μM, Human NPP1): 6%
Nc1ncnc2c1ncn2COCCOP(=O)(O)O [Compound 24] | inactived | inactived | inactived | > 10 |  | 5 ± 3% |  | 
Nc1ncnc2c1ncn2COCCOP(O)(=S)OCCOCn1cnc2c(N)ncnc21 [Compound 26] | 15 ± 2% | 13 ± 1% | inactived |  | > 10 | inactived | > 10 | 
Nc1ncnc2c1ncn2COCCOP(=O)(O)CP(=O)(O)O [Analogue 22] |  |  |  |  |  |  | 16.3 ± 2.5 | Ki [6]: 9.6 ± 2.84 µM
Nc1nc(SCc2ccccc2)nc2c1ncn2[C@@H]1O[C@H](COP(O)(=S)OP(=O)(O)OP(=O)(O)O)[C@@H](O)[C@H]1O (stereo partly drawn) [2-Benzylthio-ATP-α-S] |  |  |  |  |  |  |  | Time for decomposition of 5% ([7]; Acidic pH, reference 34): 0.8 days; Time for decomposition of 10% ([7]; Acidic pH, reference 34): 1.7 days
O=c1ccn([C@@H]2O[C@H](COP(=O)(O)OP(=O)(O)OP(=O)(O)O)[C@@H](O)[C@H]2O)c(=O)[nH]1 [UTP] |  |  |  |  |  |  |  | Time for decomposition of 5% ([1]; Acidic pH): 7.5 days; Time for decomposition of 10% ([1]; Acidic pH): 19 days; Time for decomposition of 5% ([1]; Basic pH): 1 days; Time for decomposition of 10% ([1]; Basic pH): 8.5 days; decomposition ([1]; acidic, pD 2.1, after 20 days): 11%; decomposition ([1]; basic conditions (pD 12.1), after 20 days): 10%
CSc1nc(N)c2ncn(C3OC(COP(O)(=S)OP(=O)(O)O)C(O)C3O)c2n1 (stereo not drawn) [2-Methylthio-ADP-α-S] |  |  |  |  |  |  |  | Time for decomposition of 5% ([7]; Basic pH, reference 24): <0.021 days; Time for decomposition of 10% ([7]; Basic pH, reference 24): <0.021 days
Nc1ncnc2c1ncn2COCCOP(=O)(O)CP(=O)(O)O [Compound 22] | 22 ± 2% |  | inactived | 12.6 ± 1.4 | > 10 |  |  | 
Nc1ncnc2c1ncn2COCCOP(=O)(O)C(Cl)(Cl)P(=O)(O)O [Compound 23] | 24 ± 3% | 4 ± 1% | inactived | > 10 | > 10 | 17 ± 4% | > 10 | 
Nc1ncnc2c1ncn2[C@@H]1O[C@H](COS(=O)(=O)CS(=O)(=O)O)[C@@H](O)[C@H]1O [Compound 21] | inactived | 12 ± 1% | inactived | > 10 |  | 23 ± 3% | > 10 | 

Source: patent publication US20220220135A1 (BAR-ILAN UNIVERSITY, priority 2019, published 2022)
